Source: patent US6989270B1, “Using polyamide nucleic acid oligomers to engender a biological response” (Mayo Foundation for Medical Education and Research, priority 1997, dated 2006)

System: [125I]neurotensin binding sites (NT receptors)
Experiment: [125I]neurotensin binding assay, PAG and hypothalamus homogenates of treated rats
Type: in vivo, rat
Description: Binding assays were done with homogenates from rat PAG and hypothalamus tissue as described elsewhere (Kanba et al., J. Neurochem. 46:946-952 (1986) and Al-Rodhan N.R.F., Brain Res. 557:227-235 (1991)). Tissue concentrations were 1 mg wet weight per tube in a total volume of 100 μl with a final buffer concentration of 0.05 M Tris-HCl (pH 7.4) containing the following compounds to inhibit degradation of peptides: 0.02% (w/v) bovine serum albumin, 2.8 mg/ml bacitracin, 1.0 mM EDTA, 0.5 mM o-phenanthroline, 10 μg/ml pepstatin, 10 μg/ml leupeptin, 10 μg/ml aprotinin, 5 mM benzamidine, 2 mM phenylmethylsulfonylfluoride, and 50 μM bestatin. For each experiment, 80 μl of a thawed membranal suspension was incubated for 25 minutes at 20° C. in a solution containing 0.2 nM [^125I]neurotensin with a final volume of 100 μl. After incubation, the mixture was rapidly filtered to separate bound from unbound radioligand. Each filter was then dried for 2 minutes, placed on a solid scintillation sheet (Wallac Oy, Turku Finland; cat. no. 1205-441), and measured for radioactivity in a beta-plate scintillation counter (Wallac Oy; model # 1205 beta plate). Non-specific binding of [^125I]neurotensin, defined as the binding in the presence of 1 μM neurotensin (−20% of total binding), was subtracted from the total binding to calculate the specific binding.
The LIGAND program was used to analyze all binding data (Munson P. J. and Rodbard D., Analyt. Biochem. 107:220-239 (1980)). Specifically, this program was used to calculate equilibrium dissociation constants and maximal number of binding sites.
The analysis of PAG tissue in experiment 1 was as follows. Four rats were cannulated and treated on days -4, -2, and 0 with either ACSF only or NTR1-PNA as described above. One day after the final treatment, the PAG region of the rat brain was removed, homogenized, and used in the binding assays. Rats treated with ACSF only were used to derive control values for the percent control disintegrations per minute (dpm) and percent control receptors (fmol/mg wet weight). Thus, the values for ACSF only treated rats were set to 100 percent. One day after the final treatment, the PAG region from NTR1-PNA oligomer treated rats expressed 60-70 percent fewer [^125I]neurotensin binding sites than ACSF only treated rats.
In experiment 2, five rats were untreated and used as controls, two recovered rats were treated with ACSF only, and four rats were treated with NTR1-PNA oligomers. The two rats treated with ACSF only are designated as recovered since both rats previously received a single dose of PNA oligomers intraperitoneally (one received NTR1-PNA oligomers and the other MU1R-PNA oligomers). These rats, however, were not used until five days after the intraperitoneal (i.p.) PNA oligomer treatment. Thus, at the time the binding analysis was performed, these rats were completely normal as determined by the behavioral NT-mediated responses and the MOR-mediated response described above. Again, one day after the final treatment, the PAG region from NTR1-PNA oligomer treated rats expressed fewer [^125I]neurotensin binding sites than both the recovered ACSF only treated rats and untreated control rats. In this experiment, the reduction in binding sites was about 20-30 percent of those expressed by the untreated rats.
NT binding sites from the hypothalamus region of the rat brain were also analyzed. In this experiment, the hypothalamus region of rat brain was removed from the same rats used in experiment 2 to analyze the PAG region (five untreated control rats, two recovered ACSF only treated rats, and four NTR1-PNA oligomer treated rats). The untreated rats were used to derive control values. One day after the final treatment, the hypothalamus region from NTR1-PNA oligomer treated rats expressed 40-50 percent fewer [^125I]neurotensin binding sites than untreated control rats. […]

[1] = PAG tissue, Experiment 1, control ACSF only, PAG injections days -4, -2, 0
[2] = PAG tissue, Experiment 2, untreated control

NTR1-PNA: 12-mer antisense PNA oligomer to rat NTR1 coding region, 5′-CATTGCTCAAAC-3′ (SEQ ID NO: 1) (all peptide nucleic acid (PNA))
% Control receptors (Hypothalamus tissue, untreated control, PNA injected into PAG): 51 % Control
% Control dpm's [1]: 41 % Control
% Control receptors [1]: 32 % Control
% Control dpm's [2]: 81 % Control
% Control receptors [2]: 67 % Control
fewer [125I]neurotensin binding sites than ACSF only treated rats (PAG, experiment 1, one day after final treatment): 60-70%
reduction in [125I]neurotensin binding sites vs untreated rats (PAG, experiment 2, one day after final treatment): 20-30%
effect of excess PNA added to brain homogenates on the binding assay (excess PNA added in vitro to brain homogenates): did not change these results
fewer [125I]neurotensin binding sites than untreated control rats (hypothalamus, one day after final treatment): 40-50%
